Biological target: T1, rat hippocampal α7 nAChR (endogenous, CA1 stratum radiatum interneurons) (Rattus norvegicus, UniProt Q05941)
T1 construct: gene Chrna7; native full-length homopentamer in rat hippocampal CA1 interneurons in brain slices
Test: whole-cell voltage clamp, choline-induced current, rat CA1 interneurons in slice
Details: 10 mM choline puffs; antagonist; -70 mV; pH 7.4; room temperature; approximate, read from concentration-response curve; voltage-independent; native receptor, α7β2 possibly mixed; read-out: 50% inhibition of ICh

T1 sequence (Q05941 23-502): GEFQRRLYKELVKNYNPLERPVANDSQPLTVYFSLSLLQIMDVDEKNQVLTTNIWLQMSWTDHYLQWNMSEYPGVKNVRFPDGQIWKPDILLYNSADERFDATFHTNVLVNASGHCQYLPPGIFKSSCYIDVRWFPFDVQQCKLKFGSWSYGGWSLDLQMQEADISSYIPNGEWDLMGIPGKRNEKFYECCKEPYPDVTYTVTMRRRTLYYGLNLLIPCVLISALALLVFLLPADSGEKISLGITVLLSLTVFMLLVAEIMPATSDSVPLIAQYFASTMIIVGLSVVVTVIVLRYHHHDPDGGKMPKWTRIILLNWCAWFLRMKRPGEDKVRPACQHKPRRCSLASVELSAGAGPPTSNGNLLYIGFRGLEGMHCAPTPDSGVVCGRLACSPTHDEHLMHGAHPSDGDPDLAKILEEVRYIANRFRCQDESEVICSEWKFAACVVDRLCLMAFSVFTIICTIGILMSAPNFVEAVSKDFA

IC50: ~5 µM
Structure (SMILES): CCCCCCCOc1ccc(OCC[N+]2(C)CCCCC2)cc1 [12a]

Source: publication PMC6048275, “Methylpiperidinium Iodides as Novel Antagonists for α7 Nicotinic Acetylcholine Receptors” (Frontiers in Pharmacology, 2018)
